Experimental findings from patent US20050245399A1, “Pyrazole derivatives as herbicidal compositions containing them” (ISHIHARA SANGYO KAISHA, LTD., priority 2004, published 2005) are described below.

Common to all, as to assay type: in vivo
In experiment [1] the test system is barnyardgrass (Echinochloa crus-galli L.): ECHCG. Description: Test Example 1 pre-emergence herbicidal activity, ECHCG. Conditions: Rate 63 g a.i./ha, visually observed 20th to 23rd day after application. The source says:
(§1) Upland field soil was put into a 1/170,000 ha pot, and seeds of various plants {1. barnyardgrass (Echinochloa crus-galli L.): ECHCG, 2. crabgrass (Digitaria sanguinalis L.): DIGSA, 3. green foxtail (Setaria viridis L.): SETVI, 4. redroot pigweed (Amaranthus retroflexus L.): AMARE, 5. prickly sida (Sida spinosa L.): SEDSP, 6. velvetleaf (Abutilon theophrasti): ABUTH, 7. common cocklebur (Xanthium strumarium L.): XANST, 8. rice (Oryza sativa L.): ORYSA, 9. wheat (Triticum aestivum L.): TRZAX, 10. corn (Zea mays L.): ZEAMX, 11. soybean (Glycine max Merr.): GLXMA} were sown. Then, one day after the sowing, a wettable powder or emulsifiable concentrate having the compound of the present invention formulated in accordance with a usual formulation method, was weighed so that the active ingredient would be a predetermined amount and diluted with water in an amount of 500 L/ha. The herbicide adjusted was applied by a small size sprayer for preemergence treatment. On the 20th to 23rd day after the application of the herbicide, the growth of the respective plants was visually observed, and the herbicidal effects were evaluated by growth controlling degrees (%) ranging from 0 (equivalent to the untreated control) to 100 (complete kill), whereby the results shown in Table 4, were obtained. Compound Nos. in Table 4 correspond to Compound Nos. in Table 1 and 2 given hereinbefore.

Experiment [2] has as its system crabgrass (Digitaria sanguinalis L.): DIGSA. Description: Test Example 1 pre-emergence herbicidal activity, DIGSA. Conditions: Rate 63 g a.i./ha, visually observed 20th to 23rd day after application.
Description: as §1

Experiment [3] deals with green foxtail (Setaria viridis L.): SETVI. Description: Test Example 1 pre-emergence herbicidal activity, SETVI. Conditions: Rate 63 g a.i./ha, visually observed 20th to 23rd day after application.
Description: as §1

Experiment [4] deals with redroot pigweed (Amaranthus retroflexus L.): AMARE. Description: Test Example 1 pre-emergence herbicidal activity, AMARE. Conditions: Rate 63 g a.i./ha, visually observed 20th to 23rd day after application.
Description: as §1

The subject of experiment [5] is prickly sida (Sida spinosa L.): SEDSP. As to the kind of experiment: Test Example 1 pre-emergence herbicidal activity, SIDSP. Conditions: Rate 63 g a.i./ha, visually observed 20th to 23rd day after application.
Description: as §1

In experiment [6] the test system is velvetleaf (Abutilon theophrasti): ABUTH. As to the kind of experiment: Test Example 1 pre-emergence herbicidal activity, ABUTH. Conditions: Rate 63 g a.i./ha, visually observed 20th to 23rd day after application.
Description: as §1

Experiment [7] concerns rice (Oryza sativa L.): ORYSA. Description: Test Example 1 pre-emergence herbicidal activity, ORYSA. Conditions: Rate 63 g a.i./ha, visually observed 20th to 23rd day after application.
Description: as §1

The test system of experiment [8] is wheat (Triticum aestivum L.): TRZAX. Description: Test Example 1 pre-emergence herbicidal activity, TRZAX. Conditions: Rate 63 g a.i./ha, visually observed 20th to 23rd day after application.
Description: as §1

The subject of experiment [9] is corn (Zea mays L.): ZEAMX. Description: Test Example 1 pre-emergence herbicidal activity, ZEAMX. Conditions: Rate 63 g a.i./ha, visually observed 20th to 23rd day after application.
Description: as §1

The subject of experiment [10] is soybean (Glycine max Merr.): GLXMA. As to the kind of experiment: Test Example 1 pre-emergence herbicidal activity, GLXMA. Conditions: Rate 63 g a.i./ha, visually observed 20th to 23rd day after application.
Description: as §1

Experiment [11] deals with barnyardgrass (Echinochloa crus-galli L.), ECHCG. As to the kind of experiment: Test Example 2 post-emergence (foliage treatment) herbicidal activity, ECHCG. Conditions: 63 g a.i./ha. The source says: (§2) Upland field soil was put into a 1/170,000 ha pot, and seeds of various plants were sown. Then, when the plants reached predetermined leaf stages {1. barnyardgrass (Echinochloa crus-galli L.), ECHCG: 1.1-2.1 leaf stage, 2. crabgrass (Digitaria sanguinalis L.), DIGSA: 1.0-2.0 leaf stage, 3. green foxtail (Setaria viridis L.), SETVI: 1.0-2.2 leaf stage, 4. redroot pigweed (Amaranthus retroflexus L.), AMARE: 0.1-1.5 leaf stage, 5. prickly sida (Sida spinosa L.), SIDSP: 0.1-0.6 leaf stage, 6. velvetleaf (Abutilon theophrasti), ABUTH: 0.1-0.6 leaf stage, 7. common cocklebur (Xanthium strumarium L.), XANST: 0.1 leaf stage, 8. rice (Oryza sativa L.), ORYSA; 1.0-2 leaf stage, 9. wheat (Triticum aestivum L.), TRZAX: 2.3-3.5 leaf stage, 10. corn (Zea mays L.), ZEAMXN 2.1-2.6 leaf stage, 11. soybean (Glycine max Merr.), GLXMA: primary leaf stage}, a wettable powder or emulsifiable concentrate having the compound of the present invention formulated in accordance with a usual formulation method, was weighed so that the active ingredient would be a predetermined amount, and diluted with water in an amount of 500 L/ha. To the diluted solution, 0.1% (v/v) of an agricultural spreader was added. The herbicide adjusted was applied by a small size sprayer for foliage treatment. On the 20th to 23rd day after the application of the herbicide, the growth of the respective plants was visually observed, and the herbicidal effects were evaluated by growth controlling degrees (%) ranging from 0 (equivalent to the untreated control) to 100 (complete kill), whereby the results shown in Table 5, were obtained. Compound Nos. in Table 5 correspond to Compound Nos. in Table 1 and 2 given hereinbefore.

Experiment [12] has as its system crabgrass (Digitaria sanguinalis L.), DIGSA. As to the kind of experiment: Test Example 2 post-emergence (foliage treatment) herbicidal activity, DIGSA. Conditions: 63 g a.i./ha.
Description: as §2

Experiment [13] relates to green foxtail (Setaria viridis L.), SETVI. Description: Test Example 2 post-emergence (foliage treatment) herbicidal activity, SETVI. Conditions: 63 g a.i./ha.
Description: as §2

Experiment [14] relates to prickly sida (Sida spinosa L.), SIDSP. As to the kind of experiment: Test Example 2 post-emergence (foliage treatment) herbicidal activity, SIDSP. Conditions: 63 g a.i./ha.
Description: as §2

Experiment [15] concerns velvetleaf (Abutilon theophrasti), ABUTH. Description: Test Example 2 post-emergence (foliage treatment) herbicidal activity, ABUTH. Conditions: 63 g a.i./ha.
Description: as §2

For experiment [16], the system named is rice (Oryza sativa L.), ORYSA. Description: Test Example 2 post-emergence (foliage treatment) herbicidal activity, ORYSA. Conditions: 63 g a.i./ha.
Description: as §2

For experiment [17], the system named is wheat (Triticum aestivum L.), TRZAX. Description: Test Example 2 post-emergence (foliage treatment) herbicidal activity, TRZAX. Conditions: 63 g a.i./ha.
Description: as §2

In experiment [18] the test system is corn (Zea mays L.), ZEAMX. Description: Test Example 2 post-emergence (foliage treatment) herbicidal activity, ZEAMX. Conditions: 63 g a.i./ha.
Description: as §2

Experiment [19] relates to soybean (Glycine max Merr.), GLXMA. Description: Test Example 2 post-emergence (foliage treatment) herbicidal activity, GLXMA. Conditions: 63 g a.i./ha.
Description: as §2

For the compound `COc1c(Cl)cc(F)c(-c2nn(C)c(OC(F)F)c2Cl)c1NC(=O)C(C)Cc1ccccc1` (stereo not drawn) [Compound 1-268], in experiment [1], the “Pre-emergence Herbicidal Activity ECHCG (growth controlling degree)” value (“Pre-emergence Herbicidal Activity ECHCG” for short) was determined as 40%. For the same compound, the “Pre-emergence Herbicidal Activity DIGSP (growth controlling degree)” value (shortened to “Pre-emergence Herbicidal Activity DIGSP”) in [2] amounted to 100%. In addition, the “Pre-emergence Herbicidal Activity SETVI (growth controlling degree)” value (“Pre-emergence Herbicidal Activity SETVI” below) in experiment [3] came out at 80%. For the same compound, in experiment [4], the “Pre-emergence Herbicidal Activity AMARE (growth controlling degree)” value (from here on “Pre-emergence Herbicidal Activity AMARE”) was found to be 100%. Further, the “Pre-emergence Herbicidal Activity SIDSP (growth controlling degree)” value (“Pre-emergence Herbicidal Activity SIDSP” below) in experiment [5] is reported as 70%. Also, the “Pre-emergence Herbicidal Activity ABUTH (growth controlling degree)” value (from here on “Pre-emergence Herbicidal Activity ABUTH”) in experiment [6] is 80%. Moreover, in experiment [7], the “Pre-emergence Herbicidal Activity ORYSA (growth controlling degree)” value (shortened to “Pre-emergence Herbicidal Activity ORYSA”) amounted to 30%. Besides, in experiment [8], the “Pre-emergence Herbicidal Activity TRZAX (growth controlling degree)” value (“Pre-emergence Herbicidal Activity TRZAX” below) amounted to 20%. Also, in [9], the “Pre-emergence Herbicidal Activity ZEAMX (growth controlling degree)” value (from here on “Pre-emergence Herbicidal Activity ZEAMX”) was 0%. Besides, the “Pre-emergence Herbicidal Activity GLXMA (growth controlling degree)” value (shortened to “Pre-emergence Herbicidal Activity GLXMA”) in experiment [10] stood at 0%.
In the case of `COc1c(Cl)cc(F)c(-c2nn(C)c(OC(F)F)c2Cl)c1NC(=O)CCc1cccc(F)c1` [Compound 1-266], the “Pre-emergence Herbicidal Activity ECHCG” value in [1] stood at 60%. In experiment [2], the “Pre-emergence Herbicidal Activity DIGSP” value is on record as 100%. Also, in [3], the “Pre-emergence Herbicidal Activity SETVI” value is recorded as 80%. In addition, the “Pre-emergence Herbicidal Activity AMARE” value in experiment [4] is recorded as 100%. The “Pre-emergence Herbicidal Activity SIDSP” value in experiment [5] amounted to 100%. Also, in [6], the “Pre-emergence Herbicidal Activity ABUTH” value is given as 50%. Besides, the “Pre-emergence Herbicidal Activity ORYSA” value in [7] was found to be 10%. For the same compound, in experiment [8], the “Pre-emergence Herbicidal Activity TRZAX” value came to 40%. Besides, the “Pre-emergence Herbicidal Activity ZEAMX” value in experiment [9] was 0%. Besides, the “Pre-emergence Herbicidal Activity GLXMA” value in experiment [10] was determined as 0%.
Regarding `COc1c(Cl)cc(F)c(-c2nn(C)c(OC(F)F)c2Cl)c1NC(=O)CCc1ccccc1F` [Compound 1-269], the “Pre-emergence Herbicidal Activity ECHCG” value in experiment [1] was 80%. The “Pre-emergence Herbicidal Activity DIGSP” value in [2] is recorded as 100%. Moreover, the “Pre-emergence Herbicidal Activity SETVI” value in experiment [3] was found to be 100%. For the same compound, in [4], the “Pre-emergence Herbicidal Activity AMARE” value was 100%. Moreover, the “Pre-emergence Herbicidal Activity SIDSP” value in experiment [5] stood at 100%. Further, the “Pre-emergence Herbicidal Activity ABUTH” value in [6] was 80%. In addition, the “Pre-emergence Herbicidal Activity ORYSA” value in experiment [7] amounted to 40%. Also, the “Pre-emergence Herbicidal Activity TRZAX” value in experiment [8] came out at 40%. In addition, in experiment [9], the “Pre-emergence Herbicidal Activity ZEAMX” value is 10%. Besides, the “Pre-emergence Herbicidal Activity GLXMA” value in [10] was found to be 0%.
Regarding `COc1c(Cl)cc(F)c(-c2nn(C)c(OC(F)F)c2Cl)c1NCCOc1ccccc1` [Compound 1-77], in [1], the “Pre-emergence Herbicidal Activity ECHCG” value is 0%. In addition, the “Pre-emergence Herbicidal Activity DIGSP” value in experiment [2] was found to be 0%. Besides, the “Pre-emergence Herbicidal Activity SETVI” value in experiment [3] turned out to be 10%. Besides, in experiment [5], the “Pre-emergence Herbicidal Activity SIDSP” value worked out at 0%. Also, the “Pre-emergence Herbicidal Activity ABUTH” value in [6] is on record as 0%. Besides, the “Pre-emergence Herbicidal Activity ORYSA” value in [7] is reported as 0%. Also, the “Pre-emergence Herbicidal Activity TRZAX” value in experiment [8] is 0%. For the same compound, the “Pre-emergence Herbicidal Activity ZEAMX” value in experiment [9] was determined as 0%. In experiment [10], the “Pre-emergence Herbicidal Activity GLXMA” value is 0%. Also, the “growth controlling degree, ECHCO” value in experiment [11] is recorded as 70%. In experiment [12], the “growth controlling degree, DIGSP” value is on record as 60%. For the same compound, in experiment [13], the “growth controlling degree, SETVI” value is 95%. Moreover, in experiment [14], the “growth controlling degree, SIDSP” value came out at 100%. Moreover, the “growth controlling degree, ABUTH” value in experiment [15] was found to be 100%. The “growth controlling degree, ORYSA” value in experiment [16] is listed as 40%. Besides, in [17], the “growth controlling degree, TRZAX” value is 30%. Further, the “growth controlling degree, ZEAMX” value in experiment [18] was 60%. The “growth controlling degree, GLXMA” value in experiment [19] was found to be 60%.
